Reference: US10588316B2 (priority 2015, dated 2020)
“And” between values parts separate entries of the source, which are not always exact repeats. Equal entries are not always repeated. Where two headings read alike, the source gives them in different places.

What was measured:
[1] = test system: leaf blight; set-up: species or system wheat; conditions: in vivo
[2] = test system: leaf blight; type: in vivo, wheat; conditions: in vivo
[3] = test system: wheat scab; type: in vivo; conditions: Preparation 100 (mL/mu); Jinggangmycin 20, Tebuconazole 0 g ai. agent/mu
[4] = type: in vivo, wheat; conditions: in vivo
[5] = test system: rust; type: in vivo, wheat; conditions: in vivo
[6] = test system: wheat scab; type: in vivo
[7] = test system: powdery mildew fungus; set-up: species or system wheat; conditions: in vivo
[8] = test system: wheat scab; type: in vivo; conditions: Preparation 100 g/mu; Jinggangmycin 20, Tebuconazole 0 g ai. agent/mu
[9] = test system: Fusarium graminearum and Fusarium asiaticum; experiment: organism not typed; type: cell-based; conditions: read-out: inhibitory effect on the growth of the two types of Fusaria
[10] = test system: Fusarium graminearum; experiment: microbe, parasite or virus in culture; type: cell-based; conditions: for Average Fungal Colony Diameter F.g: sensitive strains
[11] = test system: powdery mildew; type: in vivo, wheat; conditions: in vivo
[12] = test system: wheat scab; type: in vivo; remark: listed apart in the source
[13] = test system: leaf blight; type: in vivo, wheat; conditions: in vivo; remark: listed apart in the source
[14] = test system: powdery mildew; type: in vivo, wheat; conditions: in vivo; remark: listed apart in the source
[15] = test system: leaf rust fungus; set-up: species or system wheat; conditions: in vivo
[16] = test system: rust; type: in vivo, wheat; conditions: in vivo; remark: listed apart in the source
[17] = test system: Tri5 gene; type: cell-based, Fusarium asiaticum
[18] = test system: powdery mildew; type: in vivo, wheat; conditions: in vivo; remark: listed apart in the source
[19] = type: in vivo, wheat; conditions: in vivo; remark: listed apart in the source
[20] = test system: carbendazim-resistant Fusarium asiaticum; experiment: microbe, parasite or virus in culture; type: cell-based; conditions: for inhibition at 1 µg/mL / inhibition at 10 µg/mL / inhibition at 100 µg/mL / inhibition at 1000 µg/mL / inhibition at 10000 µg/mL: Fusarium asiaticum, read-out: DON Biosynthesis Inhibition Rate
[21] = test system: wheat scab; type: in vivo; remark: listed apart in the source
[22] = test system: rust; type: in vivo, wheat; conditions: in vivo; remark: listed apart in the source
[23] = test system: Fusarium asiaticum; experiment: microbe, parasite or virus in culture; type: cell-based
[24] = test system: rust; type: in vivo, wheat; conditions: in vivo; remark: listed apart in the source
[25] = test system: rust; set-up: species or system wheat; conditions: in vivo
[26] = test system: rust; set-up: species or system barley; conditions: in vivo
[27] = test system: leaf blight; type: in vivo, wheat; conditions: in vivo; remark: listed apart in the source
[28] = test system: powdery mildew; type: in vivo, wheat; conditions: in vivo; remark: listed apart in the source
[29] = test system: powdery mildew; type: in vivo, wheat; conditions: in vivo; remark: listed apart in the source
[30] = test system: wheat scab; type: in vivo; remark: listed apart in the source

Which “Disease Index Prevention Effect % Leaf Blight” value [1] does the source give for `OCC1=CC(N[C@H]2C[C@H](CO)[C@@H](OC3O[C@H](CO)[C@@H](O)[C@H](O)[C@H]3O)C(O)[C@H]2O)[C@H](O)[C@@H](O)C1O` (stereo partly shown) [Jinggangmycin, jinggangmycin A] here?
The value was 8.5% and 7.9% and 0%.

And the “Disease Index Prevention Effect % Leaf Blight” value [2]?
Its value is 8.6% and 8.8% and 5.8%.

What about the “Disease Index Prevention Effect % Head Blight” value [3] of the same compound?
Its value is 34.2%.

And the “Thousand Kernel Weight” value [4]?
Its value is 38.5 g and 40.1 g and 37.8 g and 41.5 g.

What about the “Disease Index Prevention Effect % Rust” value [5] of the same compound?
Its value is 6.5%.

What about the “Disease Index Prevention Effect % Head Blight” value ([6]; Jinggangmycin 6 g ai. agent/mu) of the same compound?
The value was 0%.

And the “Disease Index Prevention Effect % Head Blight” value ([6]; Jinggangmycin 9 g ai. agent/mu)?
Its value is 17.6%.

And the “Disease Index Prevention Effect % Head Blight” value ([6]; Jinggangmycin 15 g ai. agent/mu)?
The value was 28.3%.

What about the “Disease Index Prevention Effect % Head Blight” value ([6]; Jinggangmycin 21 g ai. agent/mu) of the same compound?
Its value is 35.4%.

And the “Incidence Prevention Effect % Powdery Mildew” value [7]?
Its value is 0% and 6.5%.

What about the “Disease Index Prevention Effect % Head Blight” value [8] of the same compound?
The value was 40.2%.

What about the inhibition at 50 µg/mL [9] of the same compound?
Its inhibition at 50 µg/mL is 6.5 to 7.8%.

And the inhibition at 50 µg/mL ([10]; Fusarium graminearum, read-out: Growth Inhibition Rate F.g)?
The inhibition at 50 µg/mL was 6.6%.

What about the “Average Fungal Colony Diameter F.g” value ([10]; Jinggangmycin A 0.1 μg/mL) of the same compound?
The value was 76.3 mm.

And the “Average Fungal Colony Diameter F.g” value ([10]; Jinggangmycin A 1.0 μg/mL)?
Its value is 76.2 mm.

What about the “Average Fungal Colony Diameter F.g” value ([10]; Jinggangmycin A 10.0 μg/mL) of the same compound?
Its value is 75.4 mm.

What about the “Average Fungal Colony Diameter F.g” value ([10]; Jinggangmycin A 50.0 μg/mL) of the same compound?
The value was 70.3 mm.

What about the “Disease Index Prevention Effect % Powdery Mildew” value [11] of the same compound?
The value was 7.3% and 4.4% and 4.5% and 0%.

What about the “Disease Index Prevention Effect % Head Blight” value ([12]; Preparation 30 g/mu, Jinggangmycin 6 g ai. agent/mu) of the same compound?
Its value is 7.4%.

What about the “Disease Index Prevention Effect % Head Blight” value ([12]; Preparation 45 g/mu, Jinggangmycin 9 g ai. agent/mu) of the same compound?
Its value is 9.4%.

And the “Disease Index Prevention Effect % Head Blight” value ([12]; Preparation 60 g/mu, Jinggangmycin 12 g ai. agent/mu)?
Its value is 10.2%.

What about the “Disease Index Prevention Effect % Head Blight” value ([12]; Preparation 75 g/mu, Jinggangmycin 15 g ai. agent/mu) of the same compound?
Its value is 34.2%.

What about the “Disease Index Prevention Effect % Leaf Blight” value [13] of the same compound?
Its value is 7.8%.

And the “Disease Index Prevention Effect % Powdery Mildew” value [14]?
Its value is 8.6% and 6.6% and 3% and 1.8%.

And the “Incidence Prevention Effect % Rust” value [15]?
Its value is 0% and 4.5%.

And the “Disease Index Prevention Effect % Rust” value [16]?
The value was 6.5%.

And the “Rate of Inhibition on Relative Expression Level of Tri5 Gene” value [17]?
The value was 59% and 66% and 84% and 87% and 90%.

And the “Disease Index Prevention Effect % Powdery Mildew” value [18]?
The value was 10.6%.

And the “Thousand Kernel Weight” value [19]?
Its value is 37.5 g and 38.6 g and 37.6 g.

And the inhibition at 1 µg/mL ([20]; 168 h)?
Its inhibition at 1 µg/mL is 28.6%.

And the inhibition at 10 µg/mL ([20]; 168 h)?
Its inhibition at 10 µg/mL is 35.5%.

What about the inhibition at 100 µg/mL ([20]; 168 h) of the same compound?
The inhibition at 100 µg/mL was 45.2%.

What about the inhibition at 1000 µg/mL ([20]; 168 h) of the same compound?
The inhibition at 1000 µg/mL was 65.5%.

What about the inhibition at 10000 µg/mL ([20]; 168 h) of the same compound?
Its inhibition at 10000 µg/mL is 75.9%.

And the inhibition at 1 µg/mL ([20]; 336 h)?
Its inhibition at 1 µg/mL is 1.7%.

And the inhibition at 10 µg/mL ([20]; 336 h)?
Its inhibition at 10 µg/mL is 7.87%.

And the inhibition at 100 µg/mL ([20]; 336 h)?
The inhibition at 100 µg/mL was 29.9%.

And the inhibition at 1000 µg/mL ([20]; 336 h)?
Its inhibition at 1000 µg/mL is 57%.

What about the inhibition at 10000 µg/mL ([20]; 336 h) of the same compound?
Its inhibition at 10000 µg/mL is 75.4%.

What about the “Toxin Production Capability of Hyphae” value ([20]; Jinggangmycin 1 μg/ml, 7 days of culture) of the same compound?
The value was 62.82 μgDON/g by dry weight of hyphae.

What about the “Toxin Production Capability of Hyphae” value ([20]; Jinggangmycin 1 μg/ml, 14 days of culture) of the same compound?
The value was 51.43 μgDON/g by dry weight of hyphae.

And the “Toxin Production Capability of Hyphae” value ([20]; Jinggangmycin 10 μg/ml, 7 days of culture)?
The value was 56.76 μgDON/g by dry weight of hyphae.

And the “Toxin Production Capability of Hyphae” value ([20]; Jinggangmycin 10 μg/ml, 14 days of culture)?
The value was 48.20 μgDON/g by dry weight of hyphae.

And the “Toxin Production Capability of Hyphae” value ([20]; Jinggangmycin 100 μg/ml, 7 days of culture)?
Its value is 48.23 μgDON/g by dry weight of hyphae.

What about the “Toxin Production Capability of Hyphae” value ([20]; Jinggangmycin 100 μg/ml, 14 days of culture) of the same compound?
Its value is 36.68 μgDON/g by dry weight of hyphae.

And the “Toxin Production Capability of Hyphae” value ([20]; Jinggangmycin 1000 μg/ml, 7 days of culture)?
The value was 30.35 μgDON/g by dry weight of hyphae.

And the “Toxin Production Capability of Hyphae” value ([20]; Jinggangmycin 1000 μg/ml, 14 days of culture)?
Its value is 22.52 μgDON/g by dry weight of hyphae.

What about the “Toxin Production Capability of Hyphae” value ([20]; Jinggangmycin 10000 μg/ml, 7 days of culture) of the same compound?
The value was 21.23 μgDON/g by dry weight of hyphae.

What about the “Toxin Production Capability of Hyphae” value ([20]; Jinggangmycin 10000 μg/ml, 14 days of culture) of the same compound?
The value was 12.85 μgDON/g by dry weight of hyphae.

And the “Disease Index Prevention Effect % Head Blight” value ([21]; Jinggangmycin 0.5 g ai. agent/mu)?
Its value is 0.0%.

And the “Disease Index Prevention Effect % Head Blight” value ([21]; Jinggangmycin 1.0 g ai. agent/mu)?
The value was 0.0%.

What about the “Disease Index Prevention Effect % Head Blight” value ([21]; Jinggangmycin 1.3 g ai. agent/mu) of the same compound?
Its value is 0.0%.

And the “Disease Index Prevention Effect % Head Blight” value ([21]; Jinggangmycin 2.5 g ai. agent/mu)?
Its value is 0.0%.

And the “Disease Index Prevention Effect % Head Blight” value ([21]; Jinggangmycin 5.0 g ai. agent/mu)?
Its value is 0.0%.

What about the “Disease Index Prevention Effect % Head Blight” value ([21]; Jinggangmycin 8.0 g ai. agent/mu) of the same compound?
The value was 17.9%.

And the “Disease Index Prevention Effect % Head Blight” value ([21]; Jinggangmycin 14.0 g ai. agent/mu)?
Its value is 23.7%.

What about the “Disease Index Prevention Effect % Head Blight” value ([21]; Jinggangmycin 16.0 g ai. agent/mu) of the same compound?
The value was 27.8%.

And the “Disease Index Prevention Effect % Head Blight” value ([21]; Jinggangmycin 28.0 g ai. agent/mu)?
Its value is 29.6%.

And the “Disease Index Prevention Effect % Rust” value [22]?
The value was 6.8% and 6.5% and 0%.

And the “Average Fungal Colony Diameter F.a” value [23]?
Its value is 76.3 mm and 75.6 mm and 69.4 mm.

What about the inhibition at 50 µg/mL ([23]; Fusarium asiaticum, read-out: Growth Inhibition Rate F.a) of the same compound?
The inhibition at 50 µg/mL was 7.8%.

What about the “Disease Index Prevention Effect % Rust” value [24] of the same compound?
The value was 8.9% and 0%.

And the “Disease Index Prevention Effect % Rust” value [25]?
Its value is 5.1% and 3.6% and 0%.

What about the “Disease Index Prevention Effect % Rust” value [26] of the same compound?
Its value is 0%.

And the “Disease Index Prevention Effect % Leaf Blight” value [27]?
Its value is 7.8%.

And the “Disease Index Prevention Effect % Powdery Mildew” value [28]?
The value was 10.6%.

What about the “Disease Index Prevention Effect % Powdery Mildew” value [29] of the same compound?
Its value is 8.5% and 0%.

And the “Disease Index Prevention Effect % Head Blight” value ([30]; Preparation 15 g/mu, Jinggangmycin 3 g ai. agent/mu)?
Its value is 0%.

What about the “Disease Index Prevention Effect % Head Blight” value ([30]; Preparation 37.5 g/mu, Jinggangmycin 7.5 g ai. agent/mu) of the same compound?
Its value is 24.2%.

And the “Disease Index Prevention Effect % Head Blight” value ([30]; Preparation 50 g/mu, Jinggangmycin 10 g ai. agent/mu)?
Its value is 32.4%.
